Source: PubChem BioAssay AID328 (DTP/NCI, 2004)
Where “and” joins values, the source holds several entries; their conditions need not be identical. Identical values can stand only once. Toxic doses and inconclusive results are not listed.

System: BDF1 mice, P388 leukemia ip, median survival T/C
Assay: NCI In Vivo Anticancer Drug Screen. Data for tumor model P388 Leukemia (intraperitoneal) in B6D2F1 (BDF1) mice
Conditions: endpoint: median survival time, higher = longer survival
Experimental: The antitumor activity of compounds was measured in mice bearing transplantable tumors. Survival or tumor size were measured and the results are expressed as the measurement made in the treated group (T) divided by the measurement made in the vehicle treated control group (C). The tumor model used in this assay is P388 Leukemia (intraperitoneal) in B6D2F1 (BDF1) mice

[1] = dose: 50.0 mg/kg/injection, schedule: Q01DX009 (ip), vehicle: saline with Tween-80
[2] = dose: 50.0 mg/kg/injection, schedule: Q04DX003 (ip), vehicle: saline with Tween-80
[3] = dose: 100.0 mg/kg/injection, schedule: Q01DX009 (ip), vehicle: saline with Tween-80
[4] = dose: 150.0 mg/kg/injection, schedule: Q01DX009 (ip), vehicle: saline with Tween-80
[5] = dose: 200.0 mg/kg/injection, schedule: Q01DX009 (ip), vehicle: saline with Tween-80
[6] = dose: 200.0 mg/kg/injection, schedule: Q04DX003 (ip), vehicle: saline with Tween-80
[7] = dose: 50.0 mg/kg/injection, schedule: Q01DX009 (ip), vehicle: saline
[8] = dose: 100.0 mg/kg/injection, schedule: Q01DX009 (ip), vehicle: saline
[9] = dose: 200.0 mg/kg/injection, schedule: Q01DX009 (ip), vehicle: saline

CNC(=N)c1ccc(NC(=N)c2ccc(NC(=N)c3ccc(NC(=O)Nc4ccc(C#N)cc4)cc3)cc2)cc1
T/C (dose: 3.0 mg/kg/injection, schedule: Q04DX003 (ip), vehicle: saline with Tween-80): 123 % of control
T/C (dose: 14.0 mg/kg/injection, schedule: Q04DX003 (ip), vehicle: saline with Tween-80): 163 % of control
T/C (dose: 16.0 mg/kg/injection, schedule: Q01DX009 (ip), vehicle: saline with Tween-80): 157 % of control
T/C (dose: 24.0 mg/kg/injection, schedule: Q01DX009 (ip), vehicle: saline with Tween-80): 173 % of control and 200 % of control
T/C (dose: 33.0 mg/kg/injection, schedule: Q04DX003 (ip), vehicle: saline with Tween-80): 250 % of control and 168 % of control and 200 % of control
T/C (dose: 37.0 mg/kg/injection, schedule: Q01DX009 (ip), vehicle: saline with Tween-80): 230 % of control
T/C (dose: 37.5 mg/kg/injection, schedule: Q01DX009 (ip), vehicle: saline with Tween-80): 153 % of control
T/C [1]: 103 % of control
T/C [2]: 250 % of control and 186 % of control
T/C (dose: 75.0 mg/kg/injection, schedule: Q04DX003 (ip), vehicle: saline with Tween-80): 250 % of control and 172 % of control
T/C (dose: 112.0 mg/kg/injection, schedule: Q04DX003 (ip), vehicle: saline with Tween-80): 216 % of control

CCCNC1=C(N2CC2)C(=O)C(NCCC)=C(N2CC2)C1=O
T/C (dose: 1.5 mg/kg/injection, schedule: Q01DX009 (ip), vehicle: saline): 161 % of control
T/C (dose: 3.0 mg/kg/injection, schedule: Q01DX009 (ip), vehicle: saline): 166 % of control and 203 % of control
T/C (dose: 6.0 mg/kg/injection, schedule: Q01DX009 (ip), vehicle: saline): 251 % of control and 208 % of control

[O-][N+](=Nc1cccc(Cl)c1)c1cccc(Cl)c1
T/C [1]: 93 % of control
T/C (dose: 66.0 mg/kg/injection, schedule: Q01DX009 (ip), vehicle: saline with Tween-80): 89 % of control
T/C [3]: 93 % of control
T/C [4]: 90 % of control
T/C [5]: 94 % of control

CCCCCCCCCCCC[N+](C)(C)CC(O)C[N+](C)(C)CCCCCCCCCCCC
T/C (dose: 3.13 mg/kg/injection, schedule: Q01DX009 (ip), vehicle: saline): 102 % of control
T/C (dose: 6.25 mg/kg/injection, schedule: Q01DX009 (ip), vehicle: saline): 107 % of control

O=C(Nc1ccc(F)cc1)Nc1cccc2ccccc12
T/C (dose: 100.0 mg/kg/injection, schedule: Q01DX001 (ip), vehicle: saline with Tween-80): 90 % of control
T/C (dose: 200.0 mg/kg/injection, schedule: Q01DX001 (ip), vehicle: saline with Tween-80): 90 % of control
T/C (dose: 400.0 mg/kg/injection, schedule: Q01DX001 (ip), vehicle: saline with Tween-80): 90 % of control

CCCCN(C)N=Nc1c(C(N)=O)n[nH]c1C
T/C (dose: 22.0 mg/kg/injection, schedule: Q01DX009 (ip), vehicle: saline with Tween-80): 122 % of control
T/C (dose: 25.0 mg/kg/injection, schedule: Q01DX009 (ip), vehicle: saline with Tween-80): 120 % of control
T/C [1]: 154 % of control
T/C (dose: 88.0 mg/kg/injection, schedule: Q04DX003 (ip), vehicle: Klucel (hydroxypropylcellulose) (HPC)): 109 % of control

O=C1CC(c2ccc(Cl)cc2)NC(c2ccc(Cl)cc2)C1 (stereo unspecified)
T/C [3]: 101 % of control
T/C (dose: 100.0 mg/kg/injection, schedule: Q04DX003 (ip), vehicle: saline with Tween-80): 107 % of control
T/C [4]: 111 % of control
T/C [5]: 116 % of control
T/C [6]: 100 % of control
T/C (dose: 400.0 mg/kg/injection, schedule: Q04DX003 (ip), vehicle: saline with Tween-80): 107 % of control

C/C(=C\c1ccc(OCc2ccccc2)cc1)C(=O)c1ccc(Cl)cc1
T/C [1]: 90 % of control
T/C [3]: 87 % of control
T/C [5]: 92 % of control

CCOC(=O)C(Cc1ccc(N(CCCl)CCCl)cc1)NC(=O)C(Cc1ccccc1)NC=O (stereo unspecified)
T/C (dose: 12.5 mg/kg/injection, schedule: Q04DX003 (ip), vehicle: saline with Tween-80): 118 % of control
T/C [1]: 168 % of control
T/C [2]: 172 % of control
T/C [3]: 90 % of control
T/C (dose: 132.0 mg/kg/injection, schedule: Q04DX003 (ip), vehicle: saline with Tween-80): 227 % of control
T/C (dose: 133.0 mg/kg/injection, schedule: Q04DX003 (ip), vehicle: saline with Tween-80): 200 % of control
T/C [6]: 254 % of control and 215 % of control

C=C1C(=O)OC2/C=C(\C)CC(O)/C=C(\C)CC(OC(=O)/C(=C\C)COC(C)=O)C12 (stereo unspecified)
T/C (dose: 20.0 mg/kg/injection, schedule: Q01DX009 (ip), vehicle: saline): 122 % of control
T/C (dose: 44.0 mg/kg/injection, schedule: Q01DX009 (ip), vehicle: saline): 150 % of control
T/C (dose: 66.0 mg/kg/injection, schedule: Q01DX009 (ip), vehicle: saline): 122 % of control

CC(/C(=N/N(C)C)c1ccccc1)C(C)/C(=N\N(C)C)c1ccccc1 (stereo unspecified)
T/C (dose: 100.0 mg/kg/injection, schedule: Q04DX002 (ip), vehicle: saline with Tween-80): 97 % of control
T/C (dose: 200.0 mg/kg/injection, schedule: Q04DX002 (ip), vehicle: saline with Tween-80): 110 % of control
T/C (dose: 400.0 mg/kg/injection, schedule: Q04DX002 (ip), vehicle: saline with Tween-80): 112 % of control

O=C(Cn1ccc(=O)[nH]c1=O)c1ccc(Cl)s1
T/C [3]: 101 % of control and 112 % of control
T/C [5]: 102 % of control and 105 % of control
T/C (dose: 400.0 mg/kg/injection, schedule: Q01DX009 (ip), vehicle: saline with Tween-80): 101 % of control and 115 % of control

NCCCC(N)(CO)C(=O)O (stereo unspecified)
T/C [7]: 91 % of control
T/C [8]: 97 % of control
T/C [9]: 100 % of control

O=C(O)C(OP(=O)(O)O)C(=O)O
T/C (dose: 25.0 mg/kg/injection, schedule: Q01DX009 (ip), vehicle: saline): 110 % of control
T/C [7]: 95 % of control
T/C [8]: 94 % of control
T/C [9]: 100 % of control

OCCNCCNCC[OH2+].OCCNCCNCC[OH2+].[Cu+2].[O-][Cl+3]([O-])([O-])[O-]
T/C (dose: 12.5 mg/kg/injection, schedule: Q01DX009 (ip), vehicle: other): 99 % of control
T/C (dose: 25.0 mg/kg/injection, schedule: Q01DX009 (ip), vehicle: other): 115 % of control
T/C (dose: 50.0 mg/kg/injection, schedule: Q01DX009 (ip), vehicle: other): 109 % of control

CCCCNS(=O)(=O)c1ccc(OC)c(N)c1
T/C (dose: 100.0 mg/kg/injection, schedule: Q04DX003 (ip), vehicle: Klucel (hydroxypropylcellulose) (HPC)): 95 % of control
T/C (dose: 200.0 mg/kg/injection, schedule: Q04DX003 (ip), vehicle: Klucel (hydroxypropylcellulose) (HPC)): 100 % of control
T/C (dose: 400.0 mg/kg/injection, schedule: Q04DX003 (ip), vehicle: Klucel (hydroxypropylcellulose) (HPC)): 100 % of control
